The values below come from ChEMBL document CHEMBL3507680, “University of Dundee, Gates Library screen for HepG2 cell viability”.

A short description of this series: Human HepG2 cell viability assay in 384 well format. The format is toxicity, cell-based. Set-up: dose 125 nL, time 70.5 hour; concentration not given beside the values. To be noted: HepG2 cells, read-out: Inhibition.
With `Cc1cc(NC(=O)NCC(O)c2ccc(F)c(F)c2)n(C)n1` (stereo not drawn), the cytotoxicity at 70.5 h was 13.9%. For `Cc1ccc(C(O)CNC(=O)Nc2cc(C)nn2C)cc1` (stereo not drawn) the value was -3.09%. For `COc1ccc(OC)c(C(O)CNC(=O)Nc2cc(C)nn2C)c1` (stereo not drawn) the value was -7.8%; for `CC(Cn1ccnc1)NC(=O)NCc1ccccn1` (stereo not drawn), -15.6%; for `Cc1noc2ncc(C(=O)NCC3CCCOC3)cc12` (stereo not drawn), -8.17%. For `Cc1cc(C)c(CNC(=O)C2CCN(c3cnccn3)CC2)c(=O)[nH]1` the value was -3.48%; for `CCn1ccnc1CN1CCN(CCC(=O)NC2CCCCC2)CC1`, -6.92%.

On to `CCC(C)NC(=O)CCNC(=O)Nc1ccc(-n2cncn2)c(F)c1` (stereo not drawn), for which the cytotoxicity at 70.5 h was -10.1%. In the case of `O=C(CC1C=CCC1)Nc1ncn(CC(=O)N2CCCCCC2)n1` (stereo not drawn), the cytotoxicity at 70.5 h was -13.4%. For `Cc1cc(C)n(CCC(=O)N2CCC(Nc3cccnn3)CC2)n1` the value was -12.8%; for `CCCNC(=O)NC(=O)CN1CCN(Cc2nccn2CC)CC1`, -9.22%; for `CN(C(=O)Nc1ccncc1)C1CCN(c2ccccc2)C1=O` (stereo not drawn), -11.8%. For `CN(Cc1csc(-c2cnn(C)c2)n1)CC1CCN(CCO)CC1` the value was 18.5%; for `c1ccc(-c2nc(CNCC3CCCN3c3cccnn3)co2)cc1` (stereo not drawn), 12.4%; for `c1cnnc(N2CCCC2CNCc2cscn2)c1` (stereo not drawn), -15%. For `Cc1ccsc1C(=O)N(C)Cc1ccncc1` the value was -7.89%; for `CCn1cc(NC(=O)NCC(c2ccc(OC)cc2)N(C)C)cn1` (stereo not drawn), -5.2%. Turning to `CC(C)(C)c1noc(CN2CCCCC2Cn2cncn2)n1` (stereo not drawn), the cytotoxicity at 70.5 h was -0.0275%. For `CN(CC1COc2ccccc2O1)C(=O)CCn1cncn1` (stereo not drawn) the value was -9.47%; for `Cc1ccc(CN(C)C(=O)c2scnc2C)cc1`, -3.98%. In the case of `Cc1ccccc1CNC(=O)Cn1nc(-c2ccc(F)cc2)oc1=O`, the cytotoxicity at 70.5 h is -9.26%. For `COc1ccccc1CNC(=O)Cn1nc(-c2ccc(F)cc2)oc1=O` the value was 10.9%; for `CN(CC1COc2ccccc2O1)C(=O)NCCCn1cccn1` (stereo not drawn), -8.71%. For `CCn1cc(NC(=O)NCC(c2cccc(OC)c2)N(C)C)cn1` (stereo not drawn) the value was -8.98%; for `Cc1c(C(=O)NCc2ccnc(OCC(F)(F)F)c2)cnn1C`, -4.98%; for `COc1cc(CNC(=O)c2c(C)noc2C)ccn1`, -4.45%. As to `Cc1cc(C)n(-c2ccc(CNCc3ccc(F)cc3F)cn2)n1`, the cytotoxicity at 70.5 h is -11.6%. For `Cc1cccnc1NC(=O)N(CCO)Cc1ccsc1` the value was -4.42%; for `Cc1ccc(C(=O)N2CCC(Oc3ccc(C)c(C)c3)CC2)c(=O)[nH]1`, -2.32%; for `Cc1cnn(CC2CN(c3nnc(C)c(C)c3C#N)CCO2)c1` (stereo not drawn), -3.86%. Regarding `COc1cccc(CCC(=O)N2CCN(CC(C)(C)O)CC2)c1`, the cytotoxicity at 70.5 h worked out at 10.1%. For `CC(C)(O)CN1CCN(C(=O)COCc2ccccc2Cl)CC1` the value was -0.918%; for `COCCN1CCN(Cc2csc(-c3cnn(C)c3)n2)CC1`, -7.26%; for `CC(C)c1nnc2n1CCN(CCC(=O)N1CCc3ccccc31)C2`, -5.29%.

`Cc1cn2c(n1)CCC(NC(=O)c1ccc(S(C)(=O)=O)o1)C2` (stereo not drawn): the cytotoxicity at 70.5 h was determined as 6.89%.

Turning to `CCOCCN1CCN(Cc2csc(-c3cnn(C)c3)n2)CC1`, the cytotoxicity at 70.5 h was -13.2%.

As for `CS(=O)(=O)Cc1ccc(C(=O)NC2CCc3nccn3C2)o1` (stereo not drawn), the cytotoxicity at 70.5 h is -6.33%. Regarding `Cc1noc(C)c1CC(=O)NCc1ccnc(OCC(F)(F)F)c1`, the cytotoxicity at 70.5 h is -7.45%. For `COc1cc(CNCc2ccc(-n3nc(C)cc3C)nc2)cc(OC)c1` the value was -5.72%; for `CN(C)C1CCN(C(=O)Cc2csc(-c3ncccn3)n2)CC1`, 0.448%.

For the molecule `CC(NC(=O)CCCc1nc(C(C)(C)C)no1)c1ccccn1` (stereo not drawn), the cytotoxicity at 70.5 h was 10.9%. For `CN(C)c1ccc(C(=O)Nc2cn[nH]c2)cc1` the value was -2.5%; for `COCC(=O)NC(C)c1cccc(Br)c1` (stereo not drawn), -2.66%; for `Cc1ccc(C(=O)Nc2cn[nH]c2)cc1`, -6.42%. For `CN(Cc1ccco1)C(=O)NC1CCCN(c2ncccn2)C1` (stereo not drawn) the value was 8.71%. For `Cc1noc(CCCC(=O)NC(C)c2ccc(Cl)s2)n1` (stereo not drawn) the value was -7.88%; for `Cc1cc(CN2CCN(C(=O)NC(C)Cn3cccn3)CC2)no1` (stereo not drawn), -9.58%; for `Cc1cc(CN(C)C(=O)NC2CCN(c3ncccn3)CC2)no1`, -0.403%. `O=C(NCCCn1cncn1)N1CCCCCC1`: the cytotoxicity at 70.5 h came to 1.12%.

Consider `CCN(Cc1ccc2c(c1)OCCO2)C(=O)c1ccc(C)[nH]c1=O`, for which the cytotoxicity at 70.5 h was -1.79%. Turning to `CCOc1ccc(CN(CC)C(=O)c2ccc(C)[nH]c2=O)cc1OC`, the cytotoxicity at 70.5 h is -0.243%. Turning to `CC(=O)N1CCCN(C(=O)NCCCn2cncn2)CC1`, the cytotoxicity at 70.5 h is -0.358%.

Take `CN1CCCC1CNC(=O)CCCOc1cccc(Br)c1` (stereo not drawn): the cytotoxicity at 70.5 h was found to be 17.7%. For `O=C(NCCCn1cncn1)N1CCC(N2CCCCC2)CC1` the value was -2.83%; for `O=C(CCc1ccncc1)N1CCCC(n2cccn2)C1` (stereo not drawn), -1.5%.

In the case of `O=C(CCCc1ccccn1)N1CCCC(n2cccn2)C1` (stereo not drawn), the cytotoxicity at 70.5 h was -3.36%. For `O=C(CCc1ccco1)N1CCCC(n2cccn2)C1` (stereo not drawn) the value was -0.72%. For `COc1ccc(C(=O)Nc2cnn(CCN3CCOCC3)c2)c(O)c1` the value was 0.79%. For the molecule `CC(=O)N1CCCCCC1C1CCN(c2ncccc2C#N)CC1` (stereo not drawn), the cytotoxicity at 70.5 h is -1.45%. As for `Cc1cnn(CCNCc2csc(-c3ccco3)n2)c1`, the cytotoxicity at 70.5 h turned out to be 18%. For `Cc1cnn(CCNCc2csc(-c3ncccn3)n2)c1` the value was 18.5%; for `CCNc1cc2c(nn1)CCN(C(=O)c1ccnc(-n3ccnc3)c1)C2`, -6.16%; for `CCOCC(O)CN1CCN(C(=O)c2ccc(C)nc2)CC1` (stereo not drawn), 0.688%.

On to `COCC(c1cccc(C(F)(F)F)c1)N(C)C(=O)c1cnccn1` (stereo not drawn), for which the cytotoxicity at 70.5 h was -9.11%. For `CC1CN(C(=O)c2ccn(-c3cccc(Cl)c3)n2)CCO1` (stereo not drawn) the value was -6.58%; for `CCc1nnc2n1CCN(C(=O)c1cc(Br)c[nH]1)C2`, -5.11%; for `c1csc(-c2nc(CNC3CCc4ncnn4C3)co2)c1` (stereo not drawn), -10%. For `COc1cccc(S(=O)(=O)NC(=O)COc2c(C)cccc2C)c1` the value was -9.64%; for `CCc1nnc2n1CCN(C(=O)c1cc3cc(F)ccc3[nH]1)C2`, 0.76%. For `Cc1ccc(C(=O)Nc2cc(C(C)C)n[nH]2)cn1` the value was 31.4%; for `CCc1csc(C2CCCN(C(=O)c3ccc(OC)nn3)C2)n1` (stereo not drawn), -9.56%; for `CCc1nc(C2CCCN2CC(=O)Nc2nncs2)no1` (stereo not drawn), -2.48%. Turning to `CC(C)c1cc(NC(=O)c2ccc(NC3CC3)nc2)[nH]n1`, the cytotoxicity at 70.5 h is -5.73%.

With `CC1CN(C)CCN1C(=O)c1ccn(-c2cccc(Cl)c2)n1` (stereo not drawn), the cytotoxicity at 70.5 h is -13.2%. For `CC(C)c1nc(C2CCCN2Cc2ccno2)no1` (stereo not drawn) the value was -12%; for `CC(C)c1nc(C2CCCN2Cc2ccccc2C#N)no1` (stereo not drawn), 5.38%. Turning to `Cc1nc(CN(C)C2CCCN(c3cccnn3)C2)no1` (stereo not drawn), the cytotoxicity at 70.5 h came out at 17.1%.

Consider `CCn1cc(CN2CCCN(C(=O)CCc3ccncc3)CC2)cn1`, for which the cytotoxicity at 70.5 h is 25.1%.

As for `COC(=O)CCc1c(C)nc2cc(O)nn2c1C`, the cytotoxicity at 70.5 h is -2.64%.

In the case of `CC(C)C(Sc1nnnn1C1CC1)C(=O)NCc1cccnc1` (stereo not drawn), the cytotoxicity at 70.5 h was -7.01%. In the case of `CCNC(=O)CCc1c(C)nc2cc(O)nn2c1C`, the cytotoxicity at 70.5 h was -5%. For `Cc1cc(CNc2ccc(C(=O)N3CCCC(C)C3)cc2C)no1` (stereo not drawn) the value was -16.5%. For `COc1ccc(NC(=O)CCc2c(C)nc3cc(O)nn3c2C)cn1` the value was -2.2%; for `CCn1cnnc1C1CCN(C(=O)c2cccc3c2ccn3C)CC1`, 6.06%. For `CC(=O)N(C)c1nc(CN2CCCCC2Cn2cncn2)cs1` (stereo not drawn) the value was -6.38%. On to `CCNC(=O)N(C)C(c1cccc(F)c1)c1ccccn1` (stereo not drawn), for which the cytotoxicity at 70.5 h is -14%.

Regarding `Cc1cnn(C2CN(Cc3nc(-c4ccco4)no3)C2)c1`, the cytotoxicity at 70.5 h was -10.1%. On to `Cc1oc(C(=O)O)cc1S(=O)(=O)Nc1ccc(Cl)c(F)c1`, for which the cytotoxicity at 70.5 h is -6.62%. For `CCOc1ccc(Cl)c(C(=O)N2CCN(CCO)CC2)n1` the value was -6.15%; for `CCn1cnnc1CNC(=O)N1CCN(c2nc(C)c(C)s2)CC1`, -3.66%. For `CCC(C)(C)NC(=O)CN(C)C(c1cccc(F)c1)c1ccccn1` (stereo not drawn) the value was 0.639%; for `Cc1cccc(-c2noc(CN3CC(n4cc(C)cn4)C3)n2)c1`, -5.31%; for `CC(C)C(Sc1nnc(C2CC2)n1C1CC1)C(=O)NCc1cccnc1` (stereo not drawn), -8.64%. Take `CN(Cc1ccsc1)C(=O)c1cccc(S(=O)(=O)NC(C)(C)C)c1`: the cytotoxicity at 70.5 h was -2.95%. For `COc1ccc(-c2nc(CN3CCN(CCO)CC3)co2)cc1` the value was 30.3%. In the case of `C=C(C)COCCNC(=O)C1CCCN1C(C)=O` (stereo not drawn), the cytotoxicity at 70.5 h was -13.6%.

With `CC(C)OCCCNC(=O)CS(=O)(=O)Cc1ccc(Cl)c(Cl)c1`, the cytotoxicity at 70.5 h was -9.73%.

Turning to `CC(C)(C)c1noc(CN2CCN(C(=O)c3cccs3)CC2)n1`, the cytotoxicity at 70.5 h was -12.1%.

Consider `COc1ncccc1NC(=O)N(Cc1ccc(C)o1)C1CC1`, for which the cytotoxicity at 70.5 h was -9.49%.

As for `CCN(C(=O)Nc1cccnc1OC)C1CC1`, the cytotoxicity at 70.5 h is -9.27%. For `Cc1cccnc1NC(=O)NC(C)Cn1cccn1` (stereo not drawn) the value was -7.34%. For `CCN(Cc1ccc2c(c1)OCCO2)S(=O)(=O)N(C)C(C)C` the value was -7.62%; for `COc1cccc(CNC(C)Cn2cccn2)c1OC` (stereo not drawn), 2.73%.
